Measured values taken from patent US7531506B2, “Process for producing trunkamide a compounds” (Pharma Mar, S.A., priority 2001, dated 2009).
*1 amine or outer side, *2 acyl side, *3 side chain or, on linkers, in order; H or OH if unused. Where a SMILES comes first, the peptide text is derived from it. [ ]: non-standard residue; d: D form. The star is where a group is joined. X1 = O=C([C@@H]1CSC([C@@H](Cc2ccccc2)N[*:1])=N1)[*:2]; X2 = C=CC(C)(C)O[C@H](C)C(N[*:1])C(=O)[*:2]; Allyl(1,1-Me2) = C=CC(C)(C)*

What was measured:
Type in all cases: cell-based
[1] = system: DU145 human prostate carcinoma; assay: Cytotoxicity, DU145 cells; settings: read-out: Cytoxicity IC50 DU145
Description: (§1) Cytoxicity of trunkamide A and derivatives IC50 (molar).
(§2) Methodology: after Berjeron et al, Biochem and Bioph Res. Comm., 1984, 121, 3,848854 388=Murine lymphoma. A549=lung carcinoma. . HT-29=human colon carcinoma MEL-28=human melanoma. DU145=human prostate carcinoma.

[2] = system: A549 human lung carcinoma; assay: Cytotoxicity, A549 cells; settings: read-out: Cytoxicity IC50 A549
Description: as §1, §2

P388 murine lymphoma = assay: Cytotoxicity, P388 cells; settings: read-out: Cytoxicity IC50 P388
Description: as §1, §2

[3] = system: HT-29 human colon carcinoma; assay: Cytotoxicity, HT29 cells; settings: HT-29 human colon carcinoma cells; read-out: Cytoxicity IC50 HT29
Description: as §1, §2

MEL-28 human melanoma = assay: Cytotoxicity, MEL28 cells; settings: MEL-28 human melanoma cells; read-out: Cytoxicity IC50 MEL28
Description: as §1, §2

Molecule | IC50 [1] | IC50 [2] | IC50 (P388 murine lymphoma) | IC50 [3] | IC50 (MEL-28 human melanoma)
C=CC(C)(C)OC[C@@H]1NC(=O)C([C@@H](C)OC(C)(C)C=C)NC(=O)[C@@H]2CSC(=N2)[C@@H](Cc2ccccc2)NC(=O)[C@@H]2CCCN2C(=O)[C@H](C)NC(=O)[C@H]([C@@H](C)CC)NC1=O (stereo partly drawn) [Compound 9, Cyclo[D-Phe-Tzn-Thr(rPr)-Ser(rPr)-Ile-Ala-Pro]] (cyclo(AP[X1][X2]S(Allyl(1,1-Me2))I)) | 1200 nM | 1200 nM | 1200 nM | 1200 nM | 12000 nM
Cyclo [Compound 10, Cyclo [L-Phe-Tzn-Thr(rPr)-Ser(rPr)-Ile-Ala-Pro]] | 1200 nM | 1200 nM | 1200 nM | 1200 nM | 1200 nM
Cyclo [Compound 11, Cyclo [L-Phe-Tzn-Thr (tBu)-Ser(tBu)-Ile-Ala-Pro]] | > 6200 nM | > 6200 nM | > 6200 nM | > 6200 nM | > 6200 nM
Cyclo [Compound 12, Cyclo [L-Phe-Oxa-Thr(tBu)-Ser(tBu)-Ile-Ala-Pro]] | > 6100 nM | 3100 nM | 3100 nM | 3100 nM | > 6100 nM
